Measurements taken from US20260216137A1, “COMPOSITION FOR PREVENTING OR TREATING INFLAMMATORY SKIN DISEASES,CONTAINING 1H-PYRAZOLE-3-AMIDE COMPOUND DERIVATIVE” (AJOU UNIVERSITY INDUSTRY-ACADEMIC COOPERATION FOUNDATION, priority 2023, published 2026).

Assays:
Assay type in all cases: in vivo
IL-1ß = assay: Psoriasis mouse model: IL-1β expression by immunohistochemical staining; conditions: Compound 1 20 mg/kg; for expression level of IL-1ß in the epidermis compared to vehicle group: Aldara cream psoriasis mice, intraperitoneal daily, Compound 2 10 mg/kg, FIG. 5
Description: (§1) The hair on the backs of 7-week-old mice was removed, and then 62.5 mg of Aldara cream was applied daily for 4 days. 1% DMSO and 5% kolliphor in PBS were mixed to be injected into the vehicle intraperitoneally daily. 20 mg/kg of Compound 1, 10 mg/kg of Compound 2, and 10 mg/kg of MTx were prepared in body weight×[…], which was injected intraperitoneally daily. After injection, the mice were left for 30 minutes for sufficient suppression of cannabinoid receptor 1, applied with Aldara cream, and then sacrificed on day 5 from day 1 at which the Aldara cream was first applied, and skin tissues were made into paraffin blocks. These were evenly cut into 4 μm thick pieces, and immunochemical staining was performed.
For immunohistochemical staining, the slides were placed in a 60° C. oven for 1 hour, rinsed with xylene solution for 5 minutes, 100% EtOH for 5 minutes, 70% EtOH for 5 minutes, distilled water, and PBS, then immersed in citrate buffer, placed in a 100° C. oven for 30 minutes, and slowly cooled at room temperature for 45 minutes. After rinsing with distilled water, the slides were soaked in PBS for 5 minutes, sprayed with 0.25% TritonX-100, and left for 10 minutes to disrupt the cell membrane and allow the antibodies to penetrate. After rinsing with 0.1% Tween 20 in PBS (hereinafter referred to as PBST), hydrogen peroxide block buffer (abcam59717) was sprayed and left for 10 minutes. Afterwards, after rinsing with PBST, the slides were sprayed with 150 μl of normal blocking serum (VectastatinABC kit, PK-4001) mixed in 10 ml of PBS. The primary antibody was mixed with R.T.U animal free block and diluent (SP-5035) in 1:500, spread on the slides, and reacted in a refrigerator at 4° C. for 14 hours. After rinsing with PBST, the secondary antibody was applied for 1 hour and then HRP (VectastatinABC reagent) for 30 minutes. […]
(§2) The signals of TNF-α and IL-1B, stained brown, were quantified through immunohistochemical staining.

psoriasis mouse model [1] = assay: Psoriasis mouse model: skin thickness by hematoxylin/eosin staining; conditions: Aldara cream psoriasis mice; intraperitoneal daily, Compound 1 20 mg/kg, Compound 2 10 mg/kg; FIG. 3
Description: as §1
The slides were placed in a 60° C. oven for 1 hour, rinsed with xylene solution for 5 minutes, 100% EtOH for 5 minutes, 70% EtOH for 5 minutes, distilled water, and PBS, and then immersed in hematoxylin for 10 seconds and eosin for 3 seconds. Afterwards, they were rinsed with 70% EtOH and 100% EtOH, immersed in xylene for 20 seconds, sprayed with mounting solution, and covered with a cover glass. Each section of the skin tissue was photographed using a Leica microscope and then quantified by setting three sections per tissue as the average.

IL-17A = assay: Contact dermatitis mouse model: IL-17A expression by immunohistochemical staining; conditions: oxazolone contact dermatitis mice; intraperitoneal daily, Compound 2 20 mg/kg, Compound 1 10 mg/kg; FIG. 9
Description: (§3) For immunohistochemical staining, the slides were placed in a 60° C. oven for 1 hour, rinsed with xylene solution for 5 minutes, 100% EtOH for 5 minutes, 70% EtOH for 5 minutes, distilled water, and PBS, then immersed in citrate buffer, placed in a 100° C. oven for 30 minutes, and slowly cooled at room temperature for 45 minutes. After rinsing with distilled water, the slides were soaked in PBS for 5 minutes, sprayed with 0.25% TritonX-100, and left for 10 minutes to disrupt the cell membrane and allow the antibodies to penetrate. After rinsing with 0.1% Tween 20 in PBS (hereinafter referred to as PBST), hydrogen peroxide block buffer (abcam59717) was sprayed and left for 10 minutes. […]
(§4) After removing hair from the ears of 7-week-old mice, on the day after hair removal (day 1), oxazolone (4-ethoxymethylene-2-phenyl-2-oxazolin-5-one, cat #E0753-1G, sigma-Aldrich) was mixed in acetone and olive oil in a concentration of 2%, which was then applied to the inner and outer sides of the ears by 5 μl each. […] Intraperitoneal injection was conducted daily by 20 mg/kg for Compound 2 and 10 mg/kg for Compound 1 with a 30 interval for sufficient suppression of cannabinoid receptor 1 after the injection, and then the size of the ears was measured, followed by application of oxazolone (on days 1 and 6). […]

TNF-α = assay: Psoriasis mouse model: TNF-α expression by immunohistochemical staining; conditions: Aldara cream psoriasis mice; intraperitoneal daily, Compound 1 20 mg/kg, Compound 2 10 mg/kg; FIG. 4
Description: as §1
For immunohistochemical staining, the slides were placed in a 60° C. oven for 1 hour, rinsed with xylene solution for 5 minutes, 100% EtOH for 5 minutes, 70% EtOH for 5 minutes, distilled water, and PBS, then immersed in citrate buffer, placed in a 100° C. oven for 30 minutes, and slowly cooled at room temperature for 45 minutes. After rinsing with distilled water, the slides were soaked in PBS for 5 minutes, sprayed with 0.25% TritonX-100, and left for 10 minutes to disrupt the cell membrane and allow the antibodies to penetrate. […]
as §2

psoriasis mouse model [2] = assay: Psoriasis mouse model (Aldara cream): PASI score and spleen weight; conditions: Aldara cream psoriasis mice; intraperitoneal daily, Compound 1 20 mg/kg, Compound 2 10 mg/kg; FIG. 2
Description: as §1

[3] = system: contact dermatitis mouse model; assay: Contact dermatitis mouse model: ear skin thickness by hematoxylin/eosin staining; conditions: oxazolone contact dermatitis mice; intraperitoneal daily, Compound 2 20 mg/kg, Compound 1 10 mg/kg; FIG. 7
Description: After removing hair from the ears of 7-week-old mice, on the day after hair removal (day 1), oxazolone (4-ethoxymethylene-2-phenyl-2-oxazolin-5-one, cat #E0753-1G, sigma-Aldrich) was mixed in acetone and olive oil in a concentration of 2%, which was then applied to the inner and outer sides of the ears by 5 μl each. 1% DMSO and 5% kolliphor in PBS were mixed to be injected into the vehicle intraperitoneally daily. Intraperitoneal injection was conducted daily by 20 mg/kg for Compound 2 and 10 mg/kg for Compound 1 with a 30 interval for sufficient suppression of cannabinoid receptor 1 after the injection, and then the size of the ears was measured, followed by application of oxazolone (on days 1 and 6). On day 6, 1% oxazolone was prepared and applied to the inner and outer side of the ears by 5 μl each, and on day 7, the mice were sacrificed, with the ears formed into paraffin blocks and then cut into 4 μm thick pieces to be placed on slides. […]
The slides were placed in a 60° C. oven for 1 hour, rinsed with xylene solution for 5 minutes, 100% EtOH for 5 minutes, 70% EtOH for 5 minutes, distilled water, and PBS, and then immersed in hematoxylin for 10 seconds and eosin for 3 seconds. […] Each section of skin tissue was photographed using a Leica microscope and then quantified by setting three sections per tissue as the average.

[4] = system: contact dermatitis mouse model; assay: Contact dermatitis mouse model (oxazolone on ears): symptoms of dermatitis; conditions: oxazolone contact dermatitis mice; intraperitoneal daily, Compound 2 20 mg/kg, Compound 1 10 mg/kg; FIG. 6
Description: After removing hair from the ears of 7-week-old mice, on the day after hair removal (day 1), oxazolone (4-ethoxymethylene-2-phenyl-2-oxazolin-5-one, cat #E0753-1G, sigma-Aldrich) was mixed in acetone and olive oil in a concentration of 2%, which was then applied to the inner and outer sides of the ears by 5 μl each. 1% DMSO and 5% kolliphor in PBS were mixed to be injected into the vehicle intraperitoneally daily. Intraperitoneal injection was conducted daily by 20 mg/kg for Compound 2 and 10 mg/kg for Compound 1 with a 30 interval for sufficient suppression of cannabinoid receptor 1 after the injection, and then the size of the ears was measured, followed by application of oxazolone (on days 1 and 6). On day 6, 1% oxazolone was prepared and applied to the inner and outer side of the ears by 5 μl each, and on day 7, the mice were sacrificed, with the ears formed into paraffin blocks and then cut into 4 μm thick pieces to be placed on slides.
The 2% oxazolone used on day 1 was finally prepared in a volume of 800 μl for 20 mice, 16 mg of oxazolone was first dissolved in 160 μl of olive oil, then 640 μl of acetone was additionally mixed, and 10 μl of the mixture was applied on both ears, 5 μl for the front and 5 μl for the back per ear. […]

IL-1B = assay: Contact dermatitis mouse model: IL-1β expression by immunohistochemical staining; conditions: oxazolone contact dermatitis mice; intraperitoneal daily, Compound 2 20 mg/kg, Compound 1 10 mg/kg; FIG. 8
Description: as §3, §4

SMILES | expression level of IL-1ß in the epidermis compared to vehicle group (IL-1ß) | thickness of the epidermis compared to vehicle group (psoriasis mouse model [1]) | expression level of IL-17A compared to vehicle group (IL-17A) | expression level of TNF-α in the epidermis compared to vehicle group (TNF-α) | PASI score compared to vehicle group (psoriasis mouse model [2]) | spleen weight compared to vehicle group (psoriasis mouse model [2]) | thickness of the ear skin compared to vehicle group [3] | symptoms of contact dermatitis compared to vehicle group [4] | expression level of IL-1B in the epidermis compared to vehicle group (IL-1B) | inhibitory effect on inflammatory factor expression, Compound 1 versus Compound 2 (IL-1ß; psoriasis mice, comparison stated after the TNF-α and IL-1ß results, Compound 2 10 mg/kg intraperitoneal)
Cc1c(/C=C/C(=O)NCc2cccc(Cl)c2)nn(-c2ccc(Cl)cc2Cl)c1-c1ccc(Cl)cc1 [Compound 2, (E)-N-(3-chlorobenzyl)-3-(5-(4-chlorophenyl)-1-(2,4-dichlorophenyl)-4-methyl-1H-pyrazol-3-yl) acrylamide] | significantly reduced | significantly reduced | significantly reduced | significantly reduced | lower | decrease | significantly reduced | reduced | significantly reduced | 
Cc1c(C(=O)C(=O)NCCO)nn(-c2ccc(Cl)cc2Cl)c1-c1ccc(Cl)cc1 [Compound 1, 2-(5-(4-chlorophenyl)-1-(2,4-dichlorophenyl)-4-methyl-1H-pyrazol-3-yl)-N-(2-hydroxyethyl)-2-oxoacetamide] | significantly reduced | significantly reduced | significantly reduced | significantly reduced | lower | decrease | significantly reduced | reduced | significantly reduced | higher than that of Compound 2
